Source: the supplement of paper PMC13380429

Tests used:
Details in all cases: 72 h
[1] = tested on: U2OS; test: drug sensitivity score (DSS) for viability; higher = more toxic; extreme values may be limits of the assay
[2] = tested on: Calu-3; test: as above
[3] = tested on: HepG2; test: as above
[4] = tested on: Caco-2; test: as above
[5] = tested on: Vero E6; test: as above
[6] = tested on: U2OS; test: cell viability relative to DMSO; higher = less toxic
[7] = tested on: Calu-3; test: as above
[8] = tested on: HepG2; test: as above
[9] = tested on: Caco-2; test: as above
[10] = tested on: Vero E6; test: as above
[11] = tested on: U2OS; test: relative viability EC50 (midpoint between 100% and the lowest measured viability); higher = less toxic
[12] = tested on: Calu-3; test: as above
[13] = tested on: HepG2; test: as above
[14] = tested on: Caco-2; test: as above
[15] = tested on: Vero E6; test: as above

SMILES	drug sensitivity score [1]	drug sensitivity score [2]	drug sensitivity score [3]	drug sensitivity score [4]	drug sensitivity score [5]	cell viability ([6]; 1 nM) [%]	cell viability ([6]; 10 nM) [%]	cell viability ([6]; 100 nM) [%]	cell viability ([6]; 1000 nM) [%]	cell viability ([6]; 10000 nM) [%]	cell viability ([7]; 1 nM) [%]	cell viability ([7]; 10 nM) [%]	cell viability ([7]; 100 nM) [%]	cell viability ([7]; 1000 nM) [%]	cell viability ([7]; 10000 nM) [%]	cell viability ([8]; 1 nM) [%]	cell viability ([8]; 10 nM) [%]	cell viability ([8]; 100 nM) [%]	cell viability ([8]; 1000 nM) [%]	cell viability ([8]; 10000 nM) [%]	cell viability ([9]; 1 nM) [%]	cell viability ([9]; 10 nM) [%]	cell viability ([9]; 100 nM) [%]	cell viability ([9]; 1000 nM) [%]	cell viability ([9]; 10000 nM) [%]	cell viability ([10]; 1 nM) [%]	cell viability ([10]; 10 nM) [%]	cell viability ([10]; 100 nM) [%]	cell viability ([10]; 1000 nM) [%]	cell viability ([10]; 10000 nM) [%]	relative viability EC50 [11] [µM]	relative viability EC50 [12] [µM]	relative viability EC50 [13] [µM]	relative viability EC50 [14] [µM]	relative viability EC50 [15] [µM]
CC1=C(/C=C/C(C)=C/C=C/C(C)=C/C=C/C=C(C)/C=C/C=C(C)/C=C/C2=C(C)CCCC2(C)C)C(C)(C)CCC1 [beta-carotene]	0	0	0	0	0	92.6	95.1	102	93.9	101	98.9	104	104	97.4	105	96.1	103	94.6	110	106	89.3	99.3	104	92.7	98.5	93.8	102	96.3	104	108	> 10	> 10	> 10	> 10	> 10
Cc1occc(=O)c1[O-].Cc1occc(=O)c1[O-].[O]=[V+2] [bis(maltolato)oxovanadium(IV)]	0	0.3	0	0	0	98.4	91.3	102	94.5	88.5	100	103	98	92.4	86.3	110	104	100	108	93	101	96	95.4	95.4	90.4	94	98.2	92.7	105	103	> 10	> 10	> 10	> 10	> 10
S=C=Nc1ccc(N=C=S)cc1 [bitoscanate]	0	0	0	0	0	94.2	101	96.3	100	105	104	103	94.6	95.3	102	97.9	82.6	103	91	105	91.8	96.6	101	106	103	90.7	93.6	93.5	92.2	104	> 10	> 10	> 10	> 10	> 10
CC(C)(C)[C@]1(O)CCN2C[C@H]3c4ccccc4CCc4cccc(c43)[C@@H]2C1 [butaclamol]	0	0	0	0	0	95.5	101	92	101	90.2	90	99.7	97.2	112	94.9	108	100	96.3	90	95.5	101	94.3	93.9	99.6	94.5	98.4	103	104	98	102	> 10	> 10	> 10	> 10	> 10
CN1CC(O)C2=C/C(=N/NC(N)=O)C(=O)C=C21 (stereo not given) [carbazochrome]	0	0	0	0	0	101	97.6	98.2	92.7	101	105	95.3	103	93.9	93.4	98.8	97	92.2	97.1	93.1	93.3	88.5	91.5	102	109	101	97	93.9	96.8	103	> 10	> 10	> 10	> 10	> 10
CC(=O)OCC1=C(C(=O)O)N2C(=O)[C@@H](NC(=O)CCCC(N)C(=O)O)C2SC1 (stereo not given in full) [cephalosporin-c-zn]	0	0	0	0	0	97.1	98.1	94.9	92.7	104	93.2	104	91.5	97.7	99.5	103	88.2	81.8	112	102	88.7	78	94.1	89.6	99.2	93.6	87.4	90.9	100	104	> 10	> 10	> 10	> 10	> 10
C=CC1=C(C)C2=CC3=NC(=C(CC(=O)O)C4=NC(=C(C)C4=C(O)O)C=c4[nH]c(c(C)c4CC)=CC1=N2)C(CCC(=O)O)C3C (stereo not given) [chlorophyllin]	0	0	0	0	0	97.7	96.1	100	96	103	111	89.7	93.2	101	116	97.3	106	115	112	106	102	104	96.6	91	91.4	100	99.9	95.7	96.9	92.6	> 10	> 10	> 10	> 10	> 10
C[C@H](CCC(=O)O)[C@H]1CC[C@H]2[C@@H]3[C@H](O)C[C@@H]4C[C@H](O)CC[C@]4(C)[C@H]3C[C@H](O)[C@]12C [cholic-acid]	0	0	0	0	0	97.3	100	93.5	102	96.5	87	91.1	88	99	96.9	112	97.5	96.3	94.2	102	93.3	92.3	95.3	100	93	102	102	100	100	99.4	> 10	> 10	> 10	> 10	> 10
O=c1cc(-c2ccccc2)oc2cc(O)cc(O)c12 [chrysin]	0	0	0	0	0	98.4	97	101	97.4	99.2	94.5	92.9	106	91.7	102	88.5	102	93.5	100	104	99.4	86.9	102	91.9	94.4	92.5	102	87.9	94.8	111	> 10	> 10	> 10	> 10	> 10
NC(=O)C1=CN([C@@H]2O[C@H](COP(=O)(O)OP(=O)(O)OC[C@H]3O[C@@H](n4cnc5c(N)ncnc54)[C@H](O)[C@@H]3O)[C@@H](O)[C@H]2O)C=CC1 [coenzyme-I]	0	0	0	0	0	103	97.5	101	95.9	113	91.4	92.2	100	93.2	97.3	93.3	103	89.4	111	90.2	103	94.2	88.7	98.7	108	93	96.4	89.3	97.2	105	> 10	> 10	> 10	> 10	> 10
N[C@@H]1CONC1=O [cycloserine-(D)]	0	0	0	0	0	96.7	96.3	96.4	96.7	97	99.6	102	97.2	105	96.7	106	101	104	89.7	108	89.5	96.2	100	98.7	105	99.6	104	98.2	99.8	103	> 10	> 10	> 10	> 10	> 10
O=C1c2cccc(O)c2C(=O)c2c(O)cccc21 [dantron]	0	0.1	0	0	0.2	94.3	98.4	97.7	103	99.8	103	97.5	96.1	98.6	88.4	102	105	105	97.9	93.8	107	92.6	88.7	91.2	101	98.5	89.2	100	93.2	83.5	> 10	> 10	> 10	> 10	> 10
CC1(C)OC(=O)NC1=O [dimethadione]	0	0	0	0	0	101	103	95	98.6	96.2	92.4	107	100	105	109	106	102	96.9	95.9	95.1	99.9	98.9	105	97.7	98.3	112	108	108	97.7	102	> 10	> 10	> 10	> 10	> 10
CN1CCC(OC(c2ccccc2)c2ccccc2)CC1 [diphenylpyraline]	0	0	0	0	0	103	95.7	102	95.1	98.6	97.3	90	98.7	94.9	95.1	89.7	98.2	90.6	103	111	96.1	96.3	97.6	102	94.6	94.6	106	97.1	104	109	> 10	> 10	> 10	> 10	> 10
C[C@]12CCC(=O)C=C1[C@@H]1C[C@@H]1[C@H]1[C@@H]3[C@@H]4C[C@@H]4[C@@]4(CCC(=O)O4)[C@@]3(C)CC[C@@H]12 [drospirenone]	0	0	0	0	0	98.7	102	103	104	88.3	99.5	97.9	97.4	100	120	99.1	102	106	98.4	92.7	86.1	96.5	96.1	94.1	108	108	102	112	101	89.2	> 10	> 10	> 10	> 10	> 10
O=C1Nc2ccc(Cl)cc2[C@@](C#CC2CC2)(C(F)(F)F)O1 [efavirenz]	0	0	0	0	0	99.2	96.3	98.4	106	94.5	97.5	107	93.8	97.7	114	92.1	86.1	95.9	83.4	94.6	95.7	96.3	83.3	96.3	124	98.4	93.5	91.4	90	101	> 10	> 10	> 10	> 10	> 10
c1cc2c(c(N3CCNCC3)c1)OCCO2 [eltoprazine]	0	0	0	0	0	98.4	99.6	92.9	93.6	88.2	92.4	76.5	97.7	108	107	97	101	92.2	92.4	95.7	105	97.1	106	108	101	96.5	96.5	97.9	91.9	103	> 10	> 10	> 10	> 10	> 10
N=C(N)NCCCC[C@@H]1NC(=O)CCSSC[C@@H](C(N)=O)NC(=O)[C@@H]2CCCN2C(=O)[C@H](Cc2c[nH]c3ccccc23)NC(=O)[C@H](CC(=O)O)NC(=O)CNC1=O [eptifibatide]	0	0	0	0	0.9	96.6	97.4	93.7	98.5	96	96.4	104	100	103	101	97	92.6	94.7	87.1	95.5	94.6	99.5	85.8	95.4	95.6	105	95.2	100	94.8	83.3	> 10	> 10	> 10	> 10	> 10
C#C[C@]1(O)CC[C@H]2[C@@H]3CCC4=CC(=O)CC[C@@H]4[C@H]3C(=C)C[C@@]21CC [etonogestrel]	0	0	0	0.6	0	93.8	95.1	93.8	97.1	103	92.7	95.1	104	97.6	102	95.4	97.2	94.1	90	104	87.3	75.4	98.7	81.7	104	98.2	84.7	95.6	85.2	104	> 10	> 10	> 10	> 10	> 10
COc1ccc(-c2ccc(=N)n(CCCC(=O)O)n2)cc1 [gabazine]	0	0	0	0	0	102	98.5	100	97.1	103	94.8	104	95.1	98	93.5	91.5	97	96.8	95.4	100	111	106	99.9	105	103	99.5	100	98.9	95.9	96	> 10	> 10	> 10	> 10	> 10
O=C(O)c1cc(O)c(O)c(O)c1 [gallic-acid]	0	0	1.6	0	0	99.4	94.8	96.5	97.3	106	85.4	93	96.4	102	102	100	94.8	102	91.4	79.6	104	89.2	109	96.7	101	99.1	92.4	95	106	102	> 10	> 10	> 10	> 10	> 10
CCN(CC)Cc1ccc2cc(COC(=O)Nc3ccc(C(=O)NO)cc3)ccc2c1 [givinostat]	14.3	15.6	17	13.1	13.8	99.6	93.2	92.7	30.8	0.6	88.3	94.6	77.1	30.8	12.9	99.8	102	80.9	20.4	0.1	97.8	89.7	93.2	38.4	0.8	94.7	97.7	96.7	31.6	-0.1	0.561	0.263	0.327	0.686	0.653
